Measured values as given in ChEMBL document CHEMBL2346513, “Synthesis and evaluation of methylsulfonylnitrobenzamides (MSNBAs) as inhibitors of the thyroid hormone receptor-coactivator interaction” (Bioorg Med Chem Lett, 2013).

How the values were obtained:
[1] = molecular target: T1, Thyroid hormone receptor beta (Homo sapiens, UniProt P10828); test: Inhibition of TRbeta-LBD (unknown origin) interaction to texas red-labeled SRC2-2 peptide by fluorescence polarization assay
T1 sequence (P10828 whole entry): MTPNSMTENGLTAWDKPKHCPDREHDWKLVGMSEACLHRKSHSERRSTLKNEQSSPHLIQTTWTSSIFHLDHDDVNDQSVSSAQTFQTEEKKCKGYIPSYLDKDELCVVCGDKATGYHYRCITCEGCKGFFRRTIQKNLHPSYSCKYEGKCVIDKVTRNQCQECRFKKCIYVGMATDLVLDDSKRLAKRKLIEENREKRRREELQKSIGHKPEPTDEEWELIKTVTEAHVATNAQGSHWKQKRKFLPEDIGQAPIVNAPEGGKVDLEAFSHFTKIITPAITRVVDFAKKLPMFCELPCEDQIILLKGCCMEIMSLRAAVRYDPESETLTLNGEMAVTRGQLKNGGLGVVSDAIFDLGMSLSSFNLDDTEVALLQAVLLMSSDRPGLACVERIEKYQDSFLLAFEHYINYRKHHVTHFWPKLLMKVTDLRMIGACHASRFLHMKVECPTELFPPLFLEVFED

[2] = molecular target: T2, Thyroid hormone receptor alpha (Homo sapiens, UniProt P10827); test: Inhibition of TRalpha-LBD (unknown origin) interaction to texas red-labeled SRC2-2 peptide by fluorescence polarization assay
T2 sequence (P10827 whole entry): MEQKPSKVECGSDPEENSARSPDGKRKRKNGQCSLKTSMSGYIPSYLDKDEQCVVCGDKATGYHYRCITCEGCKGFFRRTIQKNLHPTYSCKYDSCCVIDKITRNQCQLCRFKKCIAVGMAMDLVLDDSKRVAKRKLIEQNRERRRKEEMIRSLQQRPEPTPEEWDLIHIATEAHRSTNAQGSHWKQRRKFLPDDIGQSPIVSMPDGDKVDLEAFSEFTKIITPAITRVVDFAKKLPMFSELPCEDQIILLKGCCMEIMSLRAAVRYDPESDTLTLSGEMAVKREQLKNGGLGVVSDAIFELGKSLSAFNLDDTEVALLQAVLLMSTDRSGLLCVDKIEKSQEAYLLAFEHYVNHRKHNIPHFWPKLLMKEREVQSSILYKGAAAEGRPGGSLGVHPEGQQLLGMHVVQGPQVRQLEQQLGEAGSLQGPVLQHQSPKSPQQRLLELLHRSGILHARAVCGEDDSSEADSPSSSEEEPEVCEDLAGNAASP

Vitamin D3 receptor = molecular target: T3, Vitamin D3 receptor (Homo sapiens, UniProt P11473); test: Inhibition of VDR (unknown origin) interaction to SRC2-3 peptide by fluorescence polarization assay
T3 sequence (P11473 whole entry): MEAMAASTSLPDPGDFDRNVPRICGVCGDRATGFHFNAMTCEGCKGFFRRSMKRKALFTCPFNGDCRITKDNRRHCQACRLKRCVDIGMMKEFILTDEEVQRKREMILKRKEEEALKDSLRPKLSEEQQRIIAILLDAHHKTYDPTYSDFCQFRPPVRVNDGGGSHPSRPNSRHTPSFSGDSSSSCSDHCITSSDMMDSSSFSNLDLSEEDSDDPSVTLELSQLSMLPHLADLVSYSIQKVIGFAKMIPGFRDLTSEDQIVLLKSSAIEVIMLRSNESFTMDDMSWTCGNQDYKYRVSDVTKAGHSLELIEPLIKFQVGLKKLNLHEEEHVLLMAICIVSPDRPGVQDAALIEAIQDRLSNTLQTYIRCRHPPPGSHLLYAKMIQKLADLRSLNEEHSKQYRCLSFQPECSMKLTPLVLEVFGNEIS

HepG2 = test: Cytotoxicity against human HepG2 cells assessed as ATP level after 72 hrs by CellTiter-Glo assay; format: cell-based; settings: HepG2, 72 h

Structure (SMILES)	IC50 [1] [µM]	IC50 [2] [µM]	IC50 (Vitamin D3 receptor) [µM]	EC50 (HepG2) [µM]
CN(C(=O)CCCNC(=O)c1ccc(S(C)(=O)=O)c([N+](=O)[O-])c1)c1ccccc1	> 60	> 60	> 60	> 27
Cc1ccc(N2CCN(C(=O)CN(C)C(=O)c3ccc(S(C)(=O)=O)c([N+](=O)[O-])c3)CC2)cc1	> 60	> 60	> 60	> 27
CN(CC(=O)N1CCN(c2ccc(C(F)(F)F)cc2)CC1)C(=O)c1ccc(S(C)(=O)=O)c([N+](=O)[O-])c1	> 60	> 60	> 60	11.9
CS(=O)(=O)c1ccc(C(=O)N2CCC(C(=O)N(Cc3ccccc3)c3ccccc3)CC2)cc1[N+](=O)[O-]	> 60	> 60	> 60	> 27
CS(=O)(=O)c1ccc(C(=O)N2CCC(C(=O)N3CCc4ccccc4C3)CC2)cc1[N+](=O)[O-]	> 60	> 60	> 60	> 27
CS(=O)(=O)c1ccc(C(=O)N2CCC(C(=O)N3Cc4ccccc4C3)CC2)cc1[N+](=O)[O-]	> 60	> 60	> 60	> 27
CS(=O)(=O)c1ccc(C(=O)N2CCC(C(=O)NC34CC5CC(CC(C5)C3)C4)CC2)cc1[N+](=O)[O-]	> 60	> 60	> 60	> 27
CS(=O)(=O)c1ccc(C(=O)NCC(=O)N2CCc3ccccc3C2)cc1[N+](=O)[O-]	46	> 60	50	> 27
CN(CC(=O)N1CCC(c2ccccc2)CC1)C(=O)c1ccc(S(C)(=O)=O)c([N+](=O)[O-])c1	> 60	> 60	> 60	> 27
CN(Cc1cccc(F)c1)C(=O)CCCNC(=O)c1ccc(S(C)(=O)=O)c([N+](=O)[O-])c1	> 60	> 60	> 60	> 27
CC1CCN(C(=O)CN(C)C(=O)c2ccc(S(C)(=O)=O)c([N+](=O)[O-])c2)CC1	> 60	> 60	> 60	> 27
CCCN(C(=O)CCNC(=O)c1ccc(S(C)(=O)=O)c([N+](=O)[O-])c1)c1ccccc1	50	32	40	> 27
CC1CCN(C(=O)CNC(=O)c2ccc(S(C)(=O)=O)c([N+](=O)[O-])c2)CC1	38	33	> 60	> 27
CC1Cc2ccccc2N1C(=O)CCCNC(=O)c1ccc(S(C)(=O)=O)c([N+](=O)[O-])c1 (stereo not given)	> 60	> 60	> 60	> 27
CC(C)N(C(=O)CNC(=O)c1ccc(S(C)(=O)=O)c([N+](=O)[O-])c1)C(C)C	> 60	> 60	> 60	> 27
CN(Cc1cccc(F)c1)C(=O)C1CCN(C(=O)c2ccc(S(C)(=O)=O)c([N+](=O)[O-])c2)CC1	> 60	> 60	> 60	> 27
CS(=O)(=O)c1ccc(C(=O)NCCCC(=O)N2CCc3ccccc3C2)cc1[N+](=O)[O-]	> 60	> 60	> 60	> 27
CC(C)N(C(=O)C1CCN(C(=O)c2ccc(S(C)(=O)=O)c([N+](=O)[O-])c2)CC1)C(C)C	> 60	> 60	> 60	> 27
CS(=O)(=O)c1ccc(C(=O)NCCCC(=O)N2CCc3ccccc32)cc1[N+](=O)[O-]	> 60	> 60	> 60	> 27
CN(Cc1ccccc1F)C(=O)CNC(=O)c1ccc(S(C)(=O)=O)c([N+](=O)[O-])c1	24	> 60	> 60	11.4
